Values quoted from earlier work as cited in patent US10251814B2, “Cefuroxime safety delivery system” (CIS PHARMA AG, priority 2011, dated 2019).
Read-outs that look alike come from different tables or passages of the source.

Key:
[1] = in 48 hours, at room temperature
[2] = test system: human corneal endothelial cells; details: 24-hour exposure
endophthalmitis = details: 16,603 patients; cefuroxime 1 mg in 0.1 ml normal saline intracameral at end of surgery; levofloxacin drops prior and subsequent to surgery
[3] = 1 mg in 0.1 ml of aqueous solution

hydrolysis rate in aqueous solution [1]: about 10%
mean intracameral concentration (after one hour, intracameral administration of 1 mg in 0.1 ml): 0.756 mg/mL
mean intracameral concentration (shortly after intracameral administration of 1 mg in 0.1 ml): 2.742 mg/mL
SMILES: CO/N=C(\C(=O)N[C@@H]1C(=O)N2C(C(=O)O)=C(COC(N)=O)CS[C@H]12)c1ccco1 [cefuroxime]
concentration resulting in a significant reduction in cell viability [2]: exceeding 2.75 mg/ml
reduction of the risk for endophthalmitis (endophthalmitis): nearly five fold
safety of intracameral administration [3]: has been established
